Measured values reported in patent US20230365592A1 (Agios Pharmaceuticals, Inc., priority 2022, published 2023).

target: T1, human PAH with the R408W mutation (Homo sapiens, UniProt P00439, R408W); test: Cell Based Phenylalanine Flux Assay; conditions: A375 cells expressing R408W PAH; 24 hrs with compound, then 20 µM sepiapterin and 800 µM 13C9,15N-Phenylalanine for 4 hours; 13C-Tyrosine by LC-MS; average where tested multiple times; read-out: AC50;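 also: after compound treatment, cells received sepiapterin plus isotope-labelled Phenylalanine for 4 hours, then labelled Tyrosine in the medium was quantified, 10-point 2-fold dilution series run in duplicate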
T1 construct: expressed in transfected cells
T1 sequence (P00439 1-452 R408W): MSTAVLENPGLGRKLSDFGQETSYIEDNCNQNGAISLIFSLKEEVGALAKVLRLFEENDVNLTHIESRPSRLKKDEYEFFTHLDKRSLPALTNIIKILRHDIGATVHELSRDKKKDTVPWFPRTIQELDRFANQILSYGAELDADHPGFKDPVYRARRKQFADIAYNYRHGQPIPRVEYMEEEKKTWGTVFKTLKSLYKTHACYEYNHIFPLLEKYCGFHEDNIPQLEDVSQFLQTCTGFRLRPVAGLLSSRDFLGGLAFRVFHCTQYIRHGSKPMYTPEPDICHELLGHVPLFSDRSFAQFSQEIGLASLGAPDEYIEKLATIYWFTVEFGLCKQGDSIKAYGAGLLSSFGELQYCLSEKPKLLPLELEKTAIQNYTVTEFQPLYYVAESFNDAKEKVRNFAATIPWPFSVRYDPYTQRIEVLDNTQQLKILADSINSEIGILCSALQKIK

SMILES	AC50 [nM]
Cn1ccc(-c2nnc(C(=O)N3CCc4[nH]cnc4C3c3cc4c(OC(F)F)cccn4n3)o2)n1 (stereo not drawn)	1000 to 5000
Cc1cccc2cc(C3c4nc[nH]c4CCN3c3nnc(C4CC4)o3)nn12 (stereo not drawn)	> 5000
Cc1nc(C(C)O)oc1C(=O)N1CCc2[nH]cnc2C1c1cc2ccccn2n1 (stereo not drawn)	1000 to 5000
O=C(Cc1cnn2ccccc12)N1CCc2[nH]cnc2C1c1cc2ccccn2n1 (stereo not drawn)	> 5000
Cc1nnc(C(=O)N2CCc3[nH]cnc3C2c2cc3ccccn3n2)s1 (stereo not drawn)	1000 to 5000

same assay, conditions: A375 cells expressing human PAH R408W; 24 hrs compound incubation; 13C-Tyrosine by LC-MS; average where tested multiple times; read-out: AC50

SMILES	AC50 [nM]
O=C(c1nnc(-c2ccn(C(F)(F)F)n2)o1)N1CCc2[nH]cnc2[C@H]1c1cc2c(C3CC3)cccn2n1 [Example 1880, (S)-(4-(4-cyclopropylpyrazolo[1,5-a]pyridin-2-yl)-1,4,6,7-tetrahydro-5H-imidazo[4,5-c]pyridin-5-yl)(5-(1-(trifluoromethyl)-1H-pyrazol-3-yl)-1,3,4-oxadiazol-2-yl)methanone]	< 500
Cc1cccn2nc([C@@H]3c4nc[nH]c4CCN3C(=O)[C@@H]3CC3(F)F)cc12 [Example 2028, ((S)-2,2-difluorocyclopropyl)((S)-4-(4-methylpyrazolo[1,5-a]pyridin-2-yl)-1,4,6,7-tetrahydro-5H-imidazo[4,5-c]pyridin-5-yl)methanone]	< 500
O=C(c1ocnc1C(F)F)N1CCc2[nH]cnc2[C@H]1c1cc2cc(F)ccn2n1 [Example 2400, (S)-(4-(difluoromethyl)oxazol-5-yl)(4-(5-fluoropyrazolo[1,5-a]pyridin-2-yl)-6,7-dihydro-1H-imidazo[4,5-c]pyridin-5(4H)-yl)methanone]	< 500
Cc1c(-c2ncc(C(=O)N3CCc4[nH]cnc4[C@H]3c3cc4c(C(F)(F)F)cccn4n3)o2)cnn1C [Example 2110, (S)-(2-(1,5-dimethyl-1H-pyrazol-4-yl)oxazol-5-yl)(4-(4-(trifluoromethyl)pyrazolo[1,5-a]pyridin-2-yl)-1,4,6,7-tetrahydro-5H-imidazo[4,5-c]pyridin-5-yl)methanone]	< 500
Cn1ccc(-c2nnc(C(=O)N3CCc4[nH]cnc4[C@H]3c3cc4c(C5CC5)cccn4n3)o2)n1 [Example 1900, (S)-(4-(4-cyclopropylpyrazolo[1,5-a]pyridin-2-yl)-1,4,6,7-tetrahydro-5H-imidazo[4,5-c]pyridin-5-yl)(5-(1-methyl-1H-pyrazol-3-yl)-1,3,4-oxadiazol-2-yl)methanone]	< 500
FC(F)Oc1cccn2nc([C@@H]3c4nc[nH]c4CCN3c3ncccn3)cc12 [Example 2254, (S)-4-(4-(difluoromethoxy)pyrazolo[1,5-a]pyridin-2-yl)-5-(pyrimidin-2-yl)-4,5,6,7-tetrahydro-1H-imidazo[4,5-c]pyridine]	< 500
FC(F)(F)c1ccc(N2CCc3[nH]cnc3[C@H]2c2cc3c(C(F)(F)F)cccn3n2)nc1 [Example 2013, (S)-4-(4-(trifluoromethyl)pyrazolo[1,5-a]pyridin-2-yl)-5-(5-(trifluoromethyl)pyridin-2-yl)-4,5,6,7-tetrahydro-1H-imidazo[4,5-c]pyridine]	< 500
CC(C)c1cccn2nc([C@H]3c4nc[nH]c4CCN3C(=O)c3nnc(-c4ccccn4)o3)cc12 [Example 1904, (R)-(4-(4-isopropylpyrazolo[1,5-a]pyridin-2-yl)-1,4,6,7-tetrahydro-5H-imidazo[4,5-c]pyridin-5-yl)(5-(pyridin-2-yl)-1,3,4-oxadiazol-2-yl)methanone]	> 5000

same assay, conditions: A375 cells expressing human R408W PAH; 24 hrs compound incubation; 13C-Tyrosine by LC-MS; average where tested multiple times; read-out: AC50

SMILES	AC50 [nM]
O=C(c1ocnc1C(F)F)N1CCc2[nH]cnc2[C@@H]1c1cc2ccc(F)cn2n1 [Example 1069, (R)-(4-(difluoromethyl)oxazol-5-yl)(4-(6-fluoropyrazolo[1,5-a]pyridin-2-yl)-6,7-dihydro-1H-imidazo[4,5-c]pyridin-5(4H)-yl)methanone]	1000 to 5000
Cc1nc(C(C)(C)F)oc1C(=O)N1CCc2[nH]cnc2[C@H]1c1cc2ccccn2n1 [Example 1250, (S)-(2-(2-fluoropropan-2-yl)-4-methyloxazol-5-yl)(4-(pyrazolo[1,5-a]pyridin-2-yl)-6,7-dihydro-1H-imidazo[4,5-c]pyridin-5(4H)-yl)methanone]	< 500
Cc1cccn2nc([C@@H]3c4nc[nH]c4CCN3C(=O)c3cnn4cc(-c5ccccn5)ccc34)cc12 [Example 1648, (S)-(4-(4-methylpyrazolo[1,5-a]pyridin-2-yl)-6,7-dihydro-1H-imidazo[4,5-c]pyridin-5(4H)-yl)(6-(pyridin-2-yl)pyrazolo[1,5-a]pyridin-3-yl)methanone]	500 to 1000
COc1ccc(-c2nnc(C(=O)N3CCc4[nH]cnc4[C@H]3c3cc4c(C)cccn4n3)o2)nc1 [Example 817, (S)-(5-(5-methoxypyridin-2-yl)-1,3,4-oxadiazol-2-yl)(4-(4-methylpyrazolo[1,5-a]pyridin-2-yl)-6,7-dihydro-1H-imidazo[4,5-c]pyridin-5(4H)-yl)methanone]	< 500
C[C@H](O)c1nc(C(F)F)c(C(=O)N2CCc3[nH]cnc3[C@@H]2c2cc3ccccn3n2)o1 [Example 693, (4-(difluoromethyl)-2-((S)-1-hydroxyethyl)oxazol-5-yl)((R)-4-(pyrazolo[1,5-a]pyridin-2-yl)-6,7-dihydro-1H-imidazo[4,5-c]pyridin-5(4H)-yl)methanone]	> 5000
CC(C)(C)c1nnc(C(=O)N2CCc3[nH]cnc3[C@@H]2c2cc3c(C(F)F)cccn3n2)o1 [Example 1408, (R)-(5-(tert-butyl)-1,3,4-oxadiazol-2-yl)(4-(4-(difluoromethyl)pyrazolo[1,5-a]pyridin-2-yl)-6,7-dihydro-1H-imidazo[4,5-c]pyridin-5(4H)-yl)methanone]	1000 to 5000
CC1(c2nnc(C(=O)N3CCc4[nH]cnc4[C@@H]3c3cc4cccc(Cl)n4n3)o2)CC1 [Example 1297, (R)-(4-(7-chloropyrazolo[1,5-a]pyridin-2-yl)-6,7-dihydro-1H-imidazo[4,5-c]pyridin-5(4H)-yl)(5-(1-methylcyclopropyl)-1,3,4-oxadiazol-2-yl)methanone]	1000 to 5000
O=C(c1nnc(-c2ccn(C(F)(F)F)n2)o1)N1CCc2[nH]cnc2[C@H]1c1cc2c(OC(F)F)cccn2n1 [Example 1708, (S)-(4-(4-(difluoromethoxy)pyrazolo[1,5-a]pyridin-2-yl)-6,7-dihydro-1H-imidazo[4,5-c]pyridin-5(4H)-yl)(5-(1-(trifluoromethyl)-1H-pyrazol-3-yl)-1,3,4-oxadiazol-2-yl)methanone]	500 to 1000
Cc1cccn2nc([C@@H]3c4nc[nH]c4CCN3C(=O)c3nnc(-c4cnn(C5CCC5)c4)o3)cc12 [Example 1038, (S)-(5-(1-cyclobutyl-1H-pyrazol-4-yl)-1,3,4-oxadiazol-2-yl)(4-(4-methylpyrazolo[1,5-a]pyridin-2-yl)-6,7-dihydro-1H-imidazo[4,5-c]pyridin-5(4H)-yl)methanone]	< 500
O=C(c1cn(-c2ccccn2)nc1Cl)N1CCc2[nH]cnc2[C@@H]1c1cc2ccccn2n1 [Example 675, (R)-(3-chloro-1-(pyridin-2-yl)-1H-pyrazol-4-yl)(4-(pyrazolo[1,5-a]pyridin-2-yl)-6,7-dihydro-1H-imidazo[4,5-c]pyridin-5(4H)-yl)methanone]	> 5000
Cc1cccn2nc([C@H]3c4nc[nH]c4CCN3c3nnc(C4CC4)o3)cc12 [Example 1588, (R)-2-cyclopropyl-5-(4-(4-methylpyrazolo[1,5-a]pyridin-2-yl)-6,7-dihydro-1H-imidazo[4,5-c]pyridin-5(4H)-yl)-1,3,4-oxadiazole]	> 5000
